Laboratory results taken from patent publication US20250382298A1, “NITROGEN-CONTAINING COMPOUND AND USE THEREOF” (SUZHOU GENHOUSE BIO CO., LTD., priority 2022, published 2025).

What was measured:
[1] = test system: HCT-116 cells; assay: Detection of cell proliferation activity by CCK8 method (HCT-116); assay type: cell-based; conditions: Homo sapiens, CCK8, 96 h
Text: (§1) This assay can be used to examine the potency of compounds in inhibiting the proliferation of tumor cells (OVCAR3, HT-29, BT-549, HCT-116). A lower IC50 value indicates high potency of the compound as a KIF18A inhibitor in the following assay setup,
(§2) McCoy's 5A medium purchased from Sangon Biotech; CCK8 kit purchased from Beyotime; OVCAR3, HT-29, HCT-116, and BT-549 cells purchased from Shanghai Fuheng Biotechnology Co., Ltd.; multimode microplate reader (Thermo).
(§3) Cells at the logarithmic growth phase were taken, digested with a cell lysis buffer (trypsin), centrifuged, counted, and seeded into a 96-well plate at an appropriate cell density (BT549: 1500 cells/well in 1640 medium. HT-29 and HCT-116: 2000 cells/well in McCoy's 5A medium), with 180 μL per well, for a total of 60 wells. The surrounding wells were filled with an equal amount of PBS to prevent water evaporation from the edge wells. The next day after cell plating, the test compounds at different concentration gradients (with an initial final concentration of 10 μM, diluted in a 1:5 gradient to obtain 9 concentration gradients) were added to the wells. Three replicate wells were set up for each concentration point, and a corresponding DMSO negative control group was also set up. Detection: After 96 h of drug treatment, the test cell culture plate was removed from the incubator. All the liquid in the 96-well plate was aspirated, and 100 μL of medium containing 10% CCK8 solution was added to each well. The plate was then incubated at 37° C. for 2 h (the OD450 of the DMSO group reached 1.5 or more), and the absorbance at 450 nm was measured using a microplate reader
(§4) After the background value was subtracted from the measurement for each well, the inhibition rate was calculated. Inhibition Rate (%)=(1−Sample/Vehicle)×100. Sample is the luminescence value of the drug treatment group, and Vehicle is the luminescence value of the DMSO control group. A sigmoidal dose-survival rate curve was plotted using a non-linear regression model in the GraphPad Prism 7.0 software, and the IC50 values were calculated.

[2] = test system: BT-549 cells; assay: Detection of cell proliferation activity by CCK8 method (BT-549); assay type: cell-based; conditions: Homo sapiens, CCK8, 96 h
Text: as §1, §2, §3, §4

[3] = test system: OVCAR3 cells; assay: Detection of cell proliferation activity by CCK8 method (OVCAR3); assay type: cell-based; conditions: Homo sapiens, OVCAR-3, CCK8, 96 h
Text: as §1, §2, §3, §4

[4] = test system: HCT-116 cells; assay: Mitotic index analysis, pH3 expression in HCT-116 cells; assay type: cell-based; conditions: Homo sapiens, 24 h treatment
Experimental: (§5) HCT-116 and HT-29 cells at the logarithmic growth phase were taken, digested with a cell lysis buffer (trypsin), centrifuged, counted, and seeded into a 96-well plate at an appropriate cell density (20000 cells/well), with 100 μL per well. The surrounding wells were filled with an appropriate amount of PBS to prevent water evaporation. The next day, the cells were treated with the compounds at different concentrations (with a starting concentration of 10 μM, 3-fold diluted to obtain 9 concentration gradients). After 24 h, the medium was aspirated, and the cells were washed twice with 100 μL of PBS. The cells were then fixed with 4% paraformaldehyde and incubated at room temperature for 15 min. The fixative solution was discarded, and the cells were washed with PBS. Then, 150 μL of specialized blocking solution (containing 1% Triton-100) was added to each well for blocking at room temperature for 2 h, and the plate was washed with PBS to remove excess blocking solution. Anti-phistone H3 (pH3) was diluted at a ratio of 1:1000 with a blocking solution containing 0.033% Triton-100, and a blank control group was set up. Then, incubation was performed at 4° C. overnight. The next day, the plate was washed twice with 1×PBST. Anti-rabbit-IgG (H+L) (CST) and DRAQ5 (Thermofisher) were each diluted at an appropriate ratio with a blocking solution containing 0.033% Triton-100 (secondary antibody: 1:2000; DRAQ5: 1:10000). Then, incubation was performed at room temperature for 2 h. The plate was washed twice with 1×PBST and once with PBS. Fluorescence signals at 700 nm and 800 nm were detected using a Li—COR Odyssey two-color near-infrared laser imager. Calculation was performed as follows: pH3 expression (%)=(Cmpd dose/DMSO control)×100. Cmpd dose is the value of the drug treatment group, and DMSO control is the value of the DMSO control group. The EC50 values were determined by fitting using the GraphPad Prism 7.0 software.

[5] = test system: HT-29 cells; assay: Mitotic index analysis, pH3 expression in HT-29 cells; assay type: cell-based, human; conditions: Homo sapiens, 24 h treatment
Experimental: as §5

[6] = test system: HT-29 cells; assay: Detection of cell proliferation activity by CCK8 method (HT-29); assay type: cell-based, human; conditions: Homo sapiens, CCK8, 96 h
Text: as §1, §2, §3, §4

IC50 [1]	IC50 [2]	IC50 [3]	EC50 [4]	EC50 [5]	IC50 [6]	Compound
> 10000 nM	90.4 nM	37.9 nM	> 10000 nM	119 nM	97.1 nM	CS(=O)(=O)Nc1ccc(C(=O)Nc2cn3cncc3c(N3CCC(F)(F)CC3)n2)c(N2CCC3(CC2)CC3)c1 [Compound 58]
> 10000 nM	83 nM	27.5 nM	> 10000 nM	49.1 nM	81.6 nM	O=C(Nc1cn2cncc2c(N2CCC(F)(F)CC2)n1)c1ccc(NS(=O)(=O)CCO)cc1N1CC2CCC(C2)C1 [Compound 59]
> 10000 nM	240 nM	63.2 nM	> 10000 nM	124 nM	144 nM	CS(=O)(=O)Nc1ccc(C(=O)Nc2cn3cncc3c(N3CCC(F)(F)CC3)n2)c(N2CC3CCC(C3)C2)c1 [Compound 60]
> 10000 nM	30.9 nM	23.2 nM	> 10000 nM	52.6 nM	59.6 nM	CS(=O)(=O)Nc1ccc(C(=O)Nc2cn3cnnc3c(N3CCC(F)(F)CC3)n2)c(N2CCC3(CC2)CC3)c1 [Compound 61]
> 10000 nM	23.1 nM	6 nM	> 10000 nM	7.7 nM	15.1 nM	O=C(Nc1cc2cc[nH]c2c(N2CCC(F)(F)CC2)n1)c1ccc(NS(=O)(=O)CCO)cc1N1CC2CCC(C2)C1 [Compound 62]
> 10000 nM	33.7 nM	10.1 nM	> 10000 nM	10.3 nM	15.6 nM	CS(=O)(=O)Nc1ccc(C(=O)Nc2cc3cc[nH]c3c(N3CCC(F)(F)CC3)n2)c(N2CC3CCC(C3)C2)c1 [Compound 63]
> 10000 nM	42.4 nM	10.2 nM	> 10000 nM	26.8 nM	55.2 nM	O=C(Nc1cn2cnnc2c(N2CCC(F)(F)CC2)n1)c1ccc(NS(=O)(=O)CCO)cc1N1CC2CCC(C2)C1 [Compound 64]
> 10000 nM	90.1 nM	18.6 nM	> 10000 nM	34.5 nM	71.5 nM	CS(=O)(=O)Nc1ccc(C(=O)Nc2cc3nn[nH]c3c(N3CCC(F)(F)CC3)n2)c(N2CC3CCC(C3)C2)c1 [Compound 66]
> 10000 nM	61.8 nM	13.9 nM	> 10000 nM	36.1 nM	88.1 nM	O=C(Nc1cc2nn[nH]c2c(N2CCC(F)(F)CC2)n1)c1ccc(NS(=O)(=O)CCO)cc1N1CC2CCC(C2)C1 [Compound 67]
> 10000 nM	90.9 nM	43.4 nM	> 10000 nM	90.1 nM	157 nM	CS(=O)(=O)Nc1ccc(C(=O)Nc2cc3nn[nH]c3c(N3CCC(F)(F)CC3)n2)c(N2CCC3(CC2)CC3)c1 [Compound 68]
> 10000 nM	39.7 nM	5 nM	> 10000 nM	7.8 nM	17.4 nM	O=C(Nc1cc2cn[nH]c2c(N2CCC(F)(F)CC2)n1)c1ccc(NS(=O)(=O)CCO)cc1N1CC2CCC(C2)C1 [Compound 71]
–	156 nM	47.9 nM	–	–	82.4 nM	CS(=O)(=O)c1ccc(C(=O)Nc2cn3ccnc3c(N3CCC(F)(F)CC3)n2)c(N2CCC3(CC2)CC3)c1 [Compound 74]
